Measured values published in ChEMBL document CHEMBL3137667, “[Drug-induced liver injury; fourteenth updated edition of the bibliographic database of liver injuries and related drugs]” (Gastroenterol Clin Biol, 2004).

Key:
[1] = human
[2] = human; remark: listed apart in the source
[3] = human; remark: listed apart in the source
[4] = human, serum
[5] = Highest frequency of acute liver toxicity observed during clinical trials, expressed as a percentage. [column '% AIGUE' in source]; details: human
[6] = Proposed mechanism(s) of liver damage. [column 'MEC' in source]; details: human
[7] = human, serum, 4383 h
[8] = human; remark: listed apart in the source
[9] = human; remark: listed apart in the source
[10] = human, serum; remark: listed apart in the source
[11] = human; remark: listed apart in the source
[12] = human; remark: listed apart in the source
[13] = Times to onset, minimal and maximal, observed in the indexed observations. [column 'DELAI' in source]; details: human
[14] = human; remark: listed apart in the source
[15] = human; remark: listed apart in the source
[16] = Highest frequency of moderate liver toxicity observed during clinical trials, expressed as a percentage. [column '% BIOL' in source]; details: human
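Wherever Hepatotoxicity (association with vascular disease) is given: count of indexed literature references reporting vascular liver injury in humans, e.g. peliosis hepatitis, hepatic veno-occlusive disease or Budd-Chiari syndrome.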
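Wherever Hepatotoxicity (benign tumour) is given: value is a count of indexed literature references citing a benign tumour confirmed by histopathology.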
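Wherever Hepatotoxicity (choleostasis) is given: human cholestatic liver injury, shown by histopathology or by peak ALT or AST elevation over alkaline phosphatase ratio below 2, value counts indexed literature reports.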
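Wherever Hepatotoxicity (chronic liver disease) is given: chronic liver injury confirmed by histopathology or persistently raised serum aminotransferase activity beyond 6 months, value given as the count of indexed literature references.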
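Wherever Hepatotoxicity (cirrhosis) is given: value is a count of indexed literature references reporting cirrhosis confirmed by histopathology.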
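Wherever Hepatotoxicity (cytolytic) is given: human cytolytic liver injury, shown by histopathology or by a ratio above 5 of peak ALT or AST elevation to alkaline phosphatase elevation, value counts indexed references.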
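Wherever Hepatotoxicity (granulomatous hepatitis) is given: value is a count of indexed literature references reporting granulomatous liver disease confirmed by histopathology.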
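Wherever Hepatotoxicity (malignant tumour) is given: malignant tumour confirmed by histopathology, value gives the count of indexed literature references reporting it.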
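Wherever Hepatotoxicity (severe hepatitis) is given: human clinical data: severe hepatitis, meaning potentially life-threatening liver failure or clinically observed cases, the value counts how many indexed literature references report it.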
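Wherever Hepatotoxicity (steatosis) is given: steatosis confirmed by histopathology, value is the count of indexed references.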

Compound	Hepatotoxicity (cirrhosis) [1]	Hepatotoxicity (malignant tumour) [3]	Hepatotoxicity (acute) [4]	Hepatotoxicity (chronic liver disease) [7]	Hepatotoxicity (benign tumour) [9]	Hepatotoxicity (moderate) [10]	Hepatotoxicity (association with vascular disease) [12]	Hepatotoxicity (time to onset) [13]	Hepatotoxicity (steatosis) [15]	Hepatotoxicity (cytolytic) [2]	Hepatotoxicity (acute) [5] [%]	Hepatotoxicity (mechanism) [6]	Hepatotoxicity (severe hepatitis) [8]	Hepatotoxicity (choleostasis) [11]	Hepatotoxicity (granulomatous hepatitis) [14]	Hepatotoxicity (moderate) [16] [%]	further results
Cc1ncc(C[n+]2csc(CCO)c2C)c(N)n1 [THIAMINE ION]	0	0	0	1	0	0	0	2 years	1	–	–	–	–	–	–	–	Hepatotoxicity (cytolytic) ([2]; Liver): 0; Hepatotoxicity (acute) ([5]; Liver): 0%; Hepatotoxicity (mechanism) ([6]; Liver): Dose-dependant; Hepatotoxicity (severe hepatitis) ([8]; Liver): 0; Hepatotoxicity (choleostasis) ([11]; Liver): 0; Hepatotoxicity (granulomatous hepatitis) ([14]; Liver): 0; Hepatotoxicity (moderate) ([16]; Liver): 0%
CCCc1nn(C)c2c(=O)[nH]c(-c3cc(S(=O)(=O)N4CCN(C)CC4)ccc3OCC)nc12	0	0	2	0	0	0	0	2 days - 4 months	0	2	0	Dose-dependant	0	0	0	0	–
O=C1c2c(O)ccc(O)c2C(=O)c2c(NCCNCCO)ccc(NCCNCCO)c21 [MITOXANTRONE]	0	0	4	0	0	21	0	4 days - 24 days	0	0	42.8	Dose-dependant	2	0	0	80	–
Cc1ccc(S(=O)(=O)NC(=O)NN2CC3CCCC3C2)cc1 (centres undefined) [GLICLAZIDE]	0	0	3	0	0	1	0	4 weeks - 5 weeks	0	2	0	Allergic	0	1	0	0	–
CN1c2ccccc2C(NCCCCCCC(=O)O)c2ccc(Cl)cc2S1(=O)=O (centres undefined) [TIANEPTINE]	0	0	4	0	0	0	–	1 week - 6 months	1	3	0	Reactive metabolite	0	2	0	0	–
CO/N=C(\C(=O)N[C@@H]1C(=O)N2C(C(=O)OC(C)OC(C)=O)=C(COC(N)=O)CS[C@H]12)c1ccco1 (some centres undefined) [CEFUROXIME AXETIL]	0	0	2	0	0	31	0	4 days	0	0	0.2	Allergic	0	1	0	20	–
CC(C)[C@H](N)C(=O)OCCOCn1cnc2c(=O)[nH]c(N)nc21 [VALACYCLOVIR]	0	0	1	0	0	2	0	10 days	0	1	0	Dose-dependant	0	1	0	17.6	–
CCn1cc(C(=O)O)c(=O)c2ccc(C)nc21 [NALIDIXIC ACID]	0	0	–	0	0	2	0	2 weeks	0	1	0	Allergic	0	2	0	0	–
CC(C)(O)c1ccccc1CC[C@@H](SCC1(CC(=O)O)CC1)c1cccc(/C=C/c2ccc3ccc(Cl)cc3n2)c1 [MONTELUKAST]	0	0	–	0	0	3	0	3 days - 2 years	0	2	–	Allergic	0	2	0	13.9	–
[H]/N=C(/N)N[C@H]1[C@H](O)[C@@H](O)[C@H](O[C@@H]2O[C@@H](C)[C@](O)(C=O)[C@H]2O[C@@H]2O[C@@H](CO)[C@H](O)[C@@H](O)[C@@H]2NC)[C@@H](N/C(N)=N\[H])[C@@H]1O [STREPTOMYCIN]	0	0	4	0	0	1	0	–	0	–	–	–	–	–	–	–	Hepatotoxicity (cytolytic) ([2]; Liver): 2; Hepatotoxicity (acute) ([5]; Liver): 0%; Hepatotoxicity (mechanism) ([6]; Liver): Allergic; Hepatotoxicity (severe hepatitis) ([8]; Liver): 0; Hepatotoxicity (choleostasis) ([11]; Liver): 1; Hepatotoxicity (granulomatous hepatitis) ([14]; Liver): 0; Hepatotoxicity (moderate) ([16]; Liver): 0%
COc1c(N2C[C@@H]3CCCN[C@@H]3C2)c(F)cc2c(=O)c(C(=O)O)cn(C3CC3)c12 [MOXIFLOXACIN]	0	0	–	0	0	3	0	26 days	0	0	–	Dose-dependant	–	1	0	–	Hepatotoxicity (severe hepatitis) ([8]; Liver): 0; Hepatotoxicity (moderate) ([16]; Liver): 6.9%
CCCCCCCCCCCCCCCCSCC(COC)COP(=O)([O-])OCC[N+](C)(C)C (centres undefined) [ILMOFOSINE]	0	0	0	0	0	5	0	–	0	0	0	Dose-dependant	0	0	0	71.4	–
PEGASPARGASE	0	0	2	0	0	0	0	–	0	0	7.7	Dose-dependant	0	0	0	0	–
COc1nc(C)ccc1CN1CC1C#N (centres undefined) [CIAMEXON]	0	0	0	0	0	2	0	–	0	0	0	Dose-dependant	0	0	0	14	–
